# Measurements taken from ChEMBL document CHEMBL1201862, “PubChem BioAssay data set” (2004).
#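 Following 48 hours of exposure in 96-well plates, responses at five concentrations were used to interpolate endpoints linearly. At the GI50, growth is halved.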 Active and inactive are the calls of the source. No stated cut-off is given here; in the data, active = GI50 up to about 1.1 µM and inactive = higher.
# Experiments:
# Test in all cases: growth of human tumour cells (NCI), 48 h
# UO-31 = tested on: UO-31
# OVCAR-8 = tested on: OVCAR-8
# HCC 2998 = tested on: HCC 2998
# HT-29 = tested on: HT-29
# COLO 205 = tested on: COLO 205
# SW-620 = tested on: SW-620
# LOX IMVI = tested on: LOX IMVI
# HL-60 = tested on: HL-60
# A498 = tested on: A498
# HCT-116 = tested on: HCT-116
# SNB-75 = tested on: SNB-75
# CCRF-CEM = tested on: CCRF-CEM
# SN12C = tested on: SN12C
# NCI-H23 = tested on: NCI-H23
# UACC-62 = tested on: UACC-62
# MOLT-4 = tested on: MOLT-4
# M19-MEL = tested on: M19-MEL
# ACHN = tested on: ACHN
# IGROV-1 = tested on: IGROV-1
# DMS-114 = tested on: DMS-114
# U-251 = tested on: U-251
# HOP-92 = tested on: HOP-92
# SF-295 = tested on: SF-295
# KM12 = tested on: KM12
# NCI-H460 = tested on: NCI-H460
# DMS-273 = tested on: DMS-273
# UACC-257 = tested on: UACC-257
# DLD-1 = tested on: DLD-1
# SK-MEL-28 = tested on: SK-MEL-28
# SF-539 = tested on: SF-539
# CAKI-1 = tested on: CAKI-1
# SK-MEL-2 = tested on: SK-MEL-2
# SNB-78 = tested on: SNB-78
# SK-OV-3 = tested on: SK-OV-3
# SF-268 = tested on: SF-268
# XF498 = tested on: XF498
# K562 = tested on: K562
# 786-0 = tested on: 786-0
# HCT-15 = tested on: HCT-15
# RXF 631 = tested on: RXF 631
# Malme-3M = tested on: Malme-3M
# LXFL 529 = tested on: LXFL 529
# OVCAR-5 = tested on: OVCAR-5
# OVCAR-3 = tested on: OVCAR-3
# HOP-62 = tested on: HOP-62
# A549 = tested on: A549
# TK-10 = tested on: TK-10
# NCI-H522 = tested on: NCI-H522
# SNB-19 = tested on: SNB-19
# M14 = tested on: M14
# SK-MEL-5 = tested on: SK-MEL-5
# SR = tested on: SR
# RXF 393 = tested on: RXF 393
# OVCAR-4 = tested on: OVCAR-4
# EKVX = tested on: EKVX
# KM-20L2 = tested on: KM-20L2
# NCI-H226 = tested on: NCI-H226
# RPMI-8226 = tested on: RPMI-8226
# HOP-18 = tested on: HOP-18
compound,measurement,setting,value
CCOC(=O)C(Cc1ccccc1)NC(=O)OC(C)(C)C (stereo unspecified),GI50,UO-31,> 100 µM (inactive)
same,GI50,OVCAR-8,> 100 µM (inactive)
same,GI50,HCC 2998,> 100 µM (inactive)
same,GI50,HT-29,> 100 µM (inactive)
same,GI50,COLO 205,> 100 µM (inactive)
same,GI50,SW-620,> 100 µM (inactive)
same,GI50,LOX IMVI,> 100 µM (inactive)
same,GI50,HL-60,> 100 µM (inactive)
same,GI50,A498,> 100 µM (inactive)
same,GI50,HCT-116,> 100 µM (inactive)
same,GI50,SNB-75,> 100 µM (inactive)
same,GI50,CCRF-CEM,> 100 µM (inactive)
same,GI50,SN12C,> 100 µM (inactive)
same,GI50,NCI-H23,> 100 µM (inactive)
same,GI50,UACC-62,> 100 µM (inactive)
same,GI50,MOLT-4,> 100 µM (inactive)
same,GI50,M19-MEL,> 100 µM (inactive)
same,GI50,ACHN,> 100 µM (inactive)
same,GI50,IGROV-1,> 100 µM (inactive)
same,GI50,DMS-114,> 100 µM (inactive)
same,GI50,U-251,> 100 µM (inactive)
same,GI50,HOP-92,> 100 µM (inactive)
same,GI50,SF-295,> 100 µM (inactive)
same,GI50,KM12,> 100 µM (inactive)
same,GI50,NCI-H460,> 100 µM (inactive)
same,GI50,DMS-273,> 100 µM (inactive)
same,GI50,UACC-257,> 100 µM (inactive)
same,GI50,DLD-1,> 100 µM (inactive)
same,GI50,SK-MEL-28,> 100 µM (inactive)
same,GI50,SF-539,> 100 µM (inactive)
same,GI50,CAKI-1,> 10 µM (inactive)
same,GI50,SK-MEL-2,> 100 µM (inactive)
same,GI50,SNB-78,> 100 µM (inactive)
same,GI50,SK-OV-3,> 100 µM (inactive)
same,GI50,SF-268,> 100 µM (inactive)
same,GI50,XF498,> 100 µM (inactive)
same,GI50,K562,> 100 µM (inactive)
same,GI50,786-0,> 100 µM (inactive)
same,GI50,HCT-15,> 100 µM
same,GI50,RXF 631,> 100 µM (inactive)
same,GI50,Malme-3M,> 100 µM (inactive)
same,GI50,LXFL 529,> 100 µM (inactive)
same,GI50,OVCAR-5,> 100 µM (inactive)
same,GI50,OVCAR-3,> 100 µM (inactive)
same,GI50,HOP-62,> 100 µM (inactive)
same,GI50,A549,> 100 µM (inactive)
same,GI50,TK-10,> 100 µM (inactive)
same,GI50,NCI-H522,> 10 µM (inactive)
same,GI50,SNB-19,> 100 µM (inactive)
same,GI50,M14,> 100 µM (inactive)
CC(C)=NNC(=S)NC12CC3CC(CC(C3)C1)C2,GI50,UO-31,> 100 µM (inactive)
same,GI50,OVCAR-8,> 100 µM (inactive)
same,GI50,HT-29,> 100 µM (inactive)
same,GI50,COLO 205,> 100 µM (inactive)
same,GI50,SW-620,> 100 µM (inactive)
same,GI50,LOX IMVI,> 100 µM (inactive)
same,GI50,HL-60,> 100 µM (inactive)
same,GI50,SK-MEL-5,> 100 µM (inactive)
same,GI50,A498,> 100 µM (inactive)
same,GI50,HCT-116,> 100 µM (inactive)
same,GI50,SNB-75,> 100 µM (inactive)
same,GI50,CCRF-CEM,> 100 µM (inactive)
same,GI50,SR,> 100 µM (inactive)
same,GI50,SN12C,> 100 µM (inactive)
same,GI50,NCI-H23,> 100 µM (inactive)
same,GI50,UACC-62,> 100 µM (inactive)
same,GI50,MOLT-4,> 100 µM (inactive)
same,GI50,M19-MEL,> 100 µM (inactive)
same,GI50,ACHN,> 100 µM (inactive)
same,GI50,IGROV-1,> 100 µM (inactive)
same,GI50,U-251,> 100 µM (inactive)
same,GI50,HOP-92,> 100 µM (inactive)
same,GI50,SF-295,> 100 µM (inactive)
same,GI50,RXF 393,> 100 µM (inactive)
same,GI50,KM12,> 100 µM (inactive)
same,GI50,NCI-H460,> 100 µM (inactive)
same,GI50,DMS-273,> 100 µM (inactive)
same,GI50,OVCAR-4,> 100 µM (inactive)
same,GI50,UACC-257,> 100 µM (inactive)
same,GI50,EKVX,> 100 µM (inactive)
same,GI50,SK-MEL-28,> 100 µM (inactive)
same,GI50,SF-539,> 100 µM (inactive)
same,GI50,CAKI-1,> 100 µM (inactive)
same,GI50,SK-MEL-2,> 100 µM (inactive)
same,GI50,SNB-78,> 100 µM (inactive)
same,GI50,SK-OV-3,> 100 µM (inactive)
same,GI50,KM-20L2,> 100 µM (inactive)
same,GI50,SF-268,> 100 µM (inactive)
same,GI50,XF498,> 100 µM (inactive)
same,GI50,K562,> 100 µM (inactive)
same,GI50,786-0,> 100 µM (inactive)
same,GI50,HCT-15,> 100 µM
same,GI50,RXF 631,> 100 µM (inactive)
same,GI50,LXFL 529,> 100 µM (inactive)
same,GI50,OVCAR-5,> 100 µM (inactive)
same,GI50,OVCAR-3,> 100 µM (inactive)
same,GI50,HOP-62,> 100 µM (inactive)
same,GI50,NCI-H226,> 100 µM (inactive)
same,GI50,A549,> 100 µM (inactive)
same,GI50,TK-10,> 100 µM (inactive)
same,GI50,NCI-H522,> 100 µM (inactive)
same,GI50,SNB-19,> 100 µM (inactive)
same,GI50,M14,> 100 µM (inactive)
same,GI50,RPMI-8226,> 100 µM (inactive)
COC(=O)C(Cc1cc(OC)c(OC)c(OC)c1)c1ccc(OC)cc1 (stereo unspecified),GI50,UO-31,> 100 µM (inactive)
same,GI50,OVCAR-8,> 100 µM (inactive)
same,GI50,HT-29,> 100 µM (inactive)
same,GI50,COLO 205,> 100 µM (inactive)
same,GI50,SW-620,> 100 µM (inactive)
same,GI50,LOX IMVI,79.3 µM (inactive)
same,GI50,HL-60,95.5 µM (inactive)
same,GI50,SK-MEL-5,45 µM (inactive)
same,GI50,A498,> 100 µM (inactive)
same,GI50,HCT-116,> 100 µM (inactive)
same,GI50,CCRF-CEM,88.5 µM (inactive)
same,GI50,SN12C,> 100 µM (inactive)
same,GI50,UACC-62,> 100 µM (inactive)
same,GI50,MOLT-4,62.7 µM (inactive)
same,GI50,M19-MEL,> 100 µM (inactive)
same,GI50,ACHN,> 100 µM (inactive)
same,GI50,IGROV-1,> 100 µM (inactive)
same,GI50,DMS-114,62.4 µM (inactive)
same,GI50,U-251,> 100 µM (inactive)
same,GI50,HOP-92,85.9 µM (inactive)
same,GI50,SF-295,> 100 µM (inactive)
same,GI50,RXF 393,> 100 µM (inactive)
same,GI50,KM12,> 100 µM (inactive)
same,GI50,NCI-H460,> 100 µM (inactive)
same,GI50,DMS-273,> 100 µM (inactive)
same,GI50,OVCAR-4,> 100 µM (inactive)
same,GI50,UACC-257,> 100 µM (inactive)
same,GI50,DLD-1,> 100 µM (inactive)
same,GI50,EKVX,> 100 µM (inactive)
same,GI50,SK-MEL-28,> 100 µM (inactive)
same,GI50,SF-539,> 100 µM (inactive)
same,GI50,CAKI-1,> 100 µM (inactive)
same,GI50,SNB-78,> 100 µM (inactive)
same,GI50,KM-20L2,> 100 µM (inactive)
same,GI50,SF-268,> 100 µM (inactive)
same,GI50,K562,88.9 µM (inactive)
same,GI50,786-0,> 100 µM (inactive)
same,GI50,HCT-15,> 100 µM
same,GI50,RXF 631,> 100 µM (inactive)
same,GI50,Malme-3M,> 100 µM (inactive)
same,GI50,HOP-18,> 100 µM (inactive)
same,GI50,LXFL 529,54.7 µM (inactive)
same,GI50,OVCAR-5,44.7 µM (inactive)
same,GI50,OVCAR-3,95.7 µM (inactive)
same,GI50,HOP-62,> 100 µM (inactive)
same,GI50,NCI-H226,> 100 µM (inactive)
same,GI50,A549,> 100 µM (inactive)
same,GI50,TK-10,> 100 µM (inactive)
same,GI50,NCI-H522,90.4 µM (inactive)
same,GI50,SNB-19,> 100 µM (inactive)
same,GI50,M14,> 100 µM (inactive)
same,GI50,RPMI-8226,44.7 µM (inactive)
